Results on three molecules are retold here after patent US4927832A, “Novel tetrahydropyridines having analgesic activity” (Roussel Uclaf, priority 1987, dated 1990).

Assay [1] has as its system Male rats of Sprague Dawley strain. Nature of the assay: Measurement of diuretic activity. Format: in vivo. The settings on record: 5 mg/kg orally, urinary volume over period t0h-t5h. How it is done: (3) Measurement of diuretic activity Male rats of Sprague Dawley strain weighing 180-200 g were deprived of food for 17 hours before the test, while receiving water ad libitum. Groups of 8 animals were set up for each dose tested and the rats received the product under test or its vehicle orally. The urine volume was measured every hour for the 5 hours following the administration of the product. After this period, the urines were collected and the activity of the product was expressed as a percentage of variation calculated on the urinary volume corresponding to the period tOH --[…].

A further assay has as its system rat. The assay can be described thus: Anti-arrhythmic activity in the rat (aconitine perfusion). The following applies: 5 minutes before aconitine perfusion, compared with controls. Format: in vivo. The procedure:
(2) Anti-arrhythmic activity in the rat
Male rats weighing 300-350 g, anesthesized intra-peritoneally with 1.20 g/kg of urethane, were tracheotomised and submitted to artifical respiration (40-50 insufflations of 3 ml/minute). Needles were implanted sub-cutaneously to record the electrocardiogram of the rats on the DII derivation signal and the products under test were administered intravenously. Five minutes after administering the product, the jugular vein of the rats was perfused with 10 μg/mn from 0.2 ml of an aconitine solution and the time of appearance of disturbances of the cardiac rhythm was noted. The results were expressed as percentage of extension of the time of appearance of the cardiac rhythm disturbances as compared with controls and as a function of the dose of the product tested.

In another assay the target is T1, K opiated receptor (Cavia porcellus, UniProt P41144).
T1 construct: prepared from the brains of guinea pigs were used; from tissue; host or cells: guinea pig brain membranes
The assay can be described thus: Liaison to the K opiated receptor in vitro (displacement of 3H ethylketocyclazocine). The class given is binding, guinea pigs. The following applies: 50% inhibiting concentration (IC50), membranes from guinea pig brains, 3H ethylketocyclazocine 1 nM, 25° C. for 40 minutes. The procedure: (1) Liaison to the K opiated receptor in vitro:
Membrane residues preserved at -30° C. (possibly up to about 30 days) and prepared from the brains of guinea pigs were used.' The residues were suspended in Tris pH 7.7 buffer and fractions of 2 ml were distributed in hemolysis tubes, 9^3 H ethylketocyclazocine 1 nM and the product under study were added. The product was first tested at 5×10^-6 M (in triplicate). When the product tested displaced the radioactivity bound specifically to the receptor by more than 50%, it was again tested according to a range of 7 doses to determine the dose which inhibits the radioactivity bound specifically to the receptor by 50%. In this way, the 50% inhibiting concentration was determined.
The non-specific liaison was determined by adding the product known as U-50488 H (Lahti et al. 1982, Life Sci. 31, 2257) at 10^-5 M in triplicate. After incubating at 25° C. for 40 minutes, returning to the water-bath at 0° C. for 5 minutes, filtering under vacuum, and rinsing with Tris pH 7.7 buffer, the radioactivity was counted in the presence of scintillating Trition. […]

The test system of the next assay is male mice. Nature of the assay: Analgesic activity (acetic acid stretching and twisting test). Format: in vivo. The following applies: administered orally 30 minutes before intraperitoneal acetic acid. The procedure:
This test was based on the observation of Koster et al (Fed. Proc. 1959, 1B, 412) that the intraperitioneal injection of acetic acid causes repeated movements of stretching and twisting in rodents which can be considered as manifestations of a diffuse abdominal pain because they ae attenuated by analgesics. The acetic acid was injected at a […] male mice of average weight of […]. The product under study was administered orally 30 minutes before the injection of the acetic acid to groups of 10 animals, each trial including a control group which receives the vehicle. Five minutes after the injection of the irritant, the stretchings and twistings were counted for each animal for a period of 15 minutes. The analgesic effect of each dose of product studied was expressed as a percentage of protection in relation to the average number of movements observed in the controls receiving acetic acid alone. The DA50 or dose necessary to reduce the number of stretchings by 50% was calculated according to the method of least squares. The DA50 values obtained with the products of Example 1 and 3 were respectively 2.5 and 5 mg/kg.

Structures are written as SMILES. Structures can show the parent of a compound that is named as a salt.

T1 sequence (P41144 whole entry): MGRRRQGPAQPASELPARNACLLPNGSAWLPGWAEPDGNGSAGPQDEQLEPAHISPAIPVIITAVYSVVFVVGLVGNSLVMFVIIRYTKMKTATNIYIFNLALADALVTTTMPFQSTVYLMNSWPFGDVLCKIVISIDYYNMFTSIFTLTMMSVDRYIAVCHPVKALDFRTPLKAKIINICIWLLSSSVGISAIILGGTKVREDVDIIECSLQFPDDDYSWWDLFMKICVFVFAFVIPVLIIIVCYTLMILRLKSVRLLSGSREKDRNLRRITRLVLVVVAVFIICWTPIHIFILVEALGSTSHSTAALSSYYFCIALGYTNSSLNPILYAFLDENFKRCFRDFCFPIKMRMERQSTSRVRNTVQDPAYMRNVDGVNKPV

By IC50 is commonly meant the concentration needed to halve the response being measured. In the case of `O=C(Cc1ccc(Cl)c(Cl)c1)N1CCCC2CCC(N3CCCC3)C21` (mixture of isomers) [Example 1, [4aRS (4a-α, 7a-α)](±)1-[(3,4-dichlorophenyl)-acetyl]-octahydro-7-(1-pyrrolidinyl)-1H-1-pyrindine hydrochloride (isomer cis I)], the “Percentage of variation of the urine volume” value in assay [1] is “+85%”. Moreover, the “Percentage of extension of the time of appearance of the cardiac rhythm disturbances” value was “+26%” with rat (dose 1 mg/kg intravenously) and “+35%” in the assay on rat (dose 2.5 mg/kg intravenously). This molecule registered an IC50 on K opiated receptor of 4 nM. The ED50 with male mice (Mus musculus, po, 0.5 h, read-out: DA50 or dose necessary to reduce the number of stretchings by 50%) amounted to 2.5 mg/kg.

With `O=C(Cc1ccc(Cl)c(Cl)c1)N1CCC[C@@H]2CCCC[C@H](N3CCCC3)[C@@H]21` (relative stereo) [Example 4, [4a-α, 9-β, 9a-α] (±) decahydro-1-([3,4-dichlorophenyl)-acetyl]-9-(1-pyrrolidinyl)-1H-cyclohepta[b]pyridine hydrochloride], the results for the “Percentage of extension of the time of appearance of the cardiac rhythm disturbances” value in the assay with rat (dose 1 mg/kg intravenously) and with rat (dose 2.5 mg/kg intravenously) were “+37%” and “+65%”, respectively.

As to `O=C(Cc1ccc(Cl)c(Cl)c1)N1CCCC2CCC(N3CCCC3)C21` (stereo not drawn) [Example 3, [4aRS (4aα, 7aβ)] (35) 1-[(3.4-dichlorophenyl)acetyl]octahydro-7-(1-pyrrolidinyl)-1H-1-pyrindine hydrochloride (isomer trans I).], the “Percentage of variation of the urine volume” value in assay [1] is reported as “+57%”. The molecule also returned an IC50 at K opiated receptor of 9 nM. Moreover, the “DA50 or dose necessary to reduce the number of stretchings by 50%” value in the assay with male mice (30 min) was 5 mg/kg.
